# In patent US20250195508A1, “COMPOUNDS AND COMPOSITIONS FOR ANITMALARIAL THERAPEUTIC AND PROPHYLACTIC USE” (UNIVERSITY OF CENTRAL FLORIDA RESEARCH FOUNDATION, INC., priority 2022, published 2025):
# Test system: P. falciparum Dd2
# Assay: Rate of killing assay
# Assay type: cell-based
# Settings: 10×EC50, 12-hour exposure then wash off
# Experimental: Asynchronous P. falciparum Dd2 cultures were plated at 1% parasitemia, 4% hematocrit into a 24-well plate, incubated at 37° C. in 5% CO2. Wells were treated with 10×EC50 of compound for 12, 24, or 48 hours before the compound was removed. Every 24 hours thereafter for 4 days total, culture samples were washed in 0.5% BSA and stained with 1×SYBR Green I and 60 μM MitoTracker Deep Red FM for 20 minutes at 37° C. After another wash in 0.5% BSA, samples were resuspended in PBS and analyzed via flow cytometry with a CytoFLEX S™, with 100,000 events recorded per sample. For gating, the following controls were used: uninfected RBCs, untreated culture, DHA-treated culture, and untreated culture without MitoTracker stain. Viable parasite percentage was determined by finding the fraction of SYBR Green/MitoTracker double positive cells from the total events. Analysis was performed with FlowJo software Version 10.
# Asynchronous cultures of P. falciparum Dd2 parasites were treated with 10×EC50 of the indicated compound for 12 hours prior to compound wash off. Flow cytometry with SYBR Green I (nuclear dye) and Mitotracker Deep Red FM (mitochondria staining) was done after compound wash-off every 24 hours after for […] (100,000 events/sample) to track parasitemia (data from 3 biological replicates±SEM).
row,Structure (SMILES),Killing profile
1,"C[C@H]1[C@@H](O)O[C@@H]2O[C@@]3(C)CC[C@H]4[C@H](C)CC[C@@H]1[C@@]24OO3 [dihydroartemisinin (DHA), dihydroartemisinin, reference compound]",pronounced irreversible killing

# Test system: P. falciparum Dd2
# Assay: 72 h SYBR Green I assay (Dd2 Proliferation Assay)
# Assay type: cell-based
# Settings: 72 hour SYBR Green I; Table 2; read-out: Dd2 EC50 (nM) ± SD
# Experimental: Several analogs were synthesized based on the structure of TL5-135 for further study. […] For the data in Table 1, compounds were subjected to in vitro biochemical kinase assays done using recombinant human ephrin type-A receptor 2 (EPHA2) (expressed in insect cells) in a Z′-LYTE® FRET-based kinase assay. P. falciparum Dd2 EC50 was determined using the standard 72 hour SYBR Green I assay (Dd2 Proliferation Assay) as known in the art. […] The structures of compoundsTL5-134, TL5-139, and TL5-145 are shown below.
# In vitro biochemical kinase assays were done using recombinant human EPHA2 (expressed in insect cells) in a Z′-LYTE® FRET-based kinase assay. P. falciparum Dd2 EC50 was determined using the standard 72 h SYBR Green I assay.
# Asynchronous blood stage P. falciparum Dd2 cultures were plated at 1% parasitemia and 1% hematocrit in a 96-well plate and incubated with serial dilutions of compound for 72 hours at 37° C. in 5% CO2. DMSO concentrations were kept at a sub-lethal percentage (<0.2%). Five micromolar chloroquine was used as a negative parasite growth control. Plates were then frozen at −80° C. and thawed, and 100 μL SYBR Green I-containing lysis buffer (20 mM Tris-HCl, 5 mM EDTA, 0.8% Triton X-100, 0.08% saponin, and 0.0001% SYBR Green I) was added to the wells. After incubation for 45 minutes at room temperature protected from light, fluorescence emission was read with a multimode microplate reader, at 485 nm excitation and 530 nm emission. Results were normalized using untreated and chloroquine-treated controls, and EC50 was determined with CDD Vault.
# To establish the utility of kinase inhibitor compounds synthesized in the Gray laboratory as a source of novel antimalarial activities, the libraries (containing 1,100 compounds) were screened using the well-established SYBR Green I-based fluorescence assay as known in the art. This screen yielded 34 compounds with EC50<500 nM in the CQ^R Dd2 strain. These hits were subjected to counter-screening against human HepG2 cells using CellTiter 96® AQueous (Promega™) MTS-based cell proliferation assay to identify asexual and liver stage antiplasmodial hits.
# P. falciparum Dd2 EC50 was determined using SYBR Green I assay. For the selectivity index ([…]) cytotoxicity was determined using CellTiter 96® AQueous MTS. The liver stage assay was performed using P. berghei luciferase expressing parasites. All assays were performed with technical quadruplicates and 3 biological replicates. Assays have a Z′ factor >0.7.
row,EC50,Structure (SMILES)
1,43.8 ± 7.9 nM,CCN1CCN(Cc2ccc(NC(=O)c3cc(Cl)cc(NC(=O)c4cncc(-c5ccc(C#N)cc5)c4)c3)cc2C(F)(F)F)CC1 [LSW-03-077]
2,86.6 ± 2.92 nM,CCN1CCN(Cc2ccc(NC(=O)c3cc(NC(=O)c4cncc(-c5cccs5)c4)cc(C(F)(F)F)c3)cc2C(F)(F)F)CC1 [LSW-03-055]
3,97.2 ± 23.3 nM,CCN1CCN(Cc2ccc(NC(=O)c3cc(Cl)cc(NC(=O)c4cncc(-c5ccco5)c4)c3)cc2C(F)(F)F)CC1 [LSW-03-006]
4,164 ± 14.7 nM,CCN1CCN(Cc2ccc(NC(=O)c3cc(Cl)cc(NC(=O)c4cncc(C)c4)c3)cc2C(F)(F)F)CC1 [LSW-03-007]
5,99.5 ± 12.7 nM,CCN1CCN(Cc2ccc(NC(=O)c3cc(F)cc(NC(=O)c4cncc(-c5cccs5)c4)c3)cc2C(F)(F)F)CC1 [LSW-03-054]
6,104 ± 8.67 nM,CCN1CCN(Cc2ccc(NC(=O)c3cc(NC(=O)c4cncc(-c5cccs5)c4)cc(Cl)c3F)cc2C(F)(F)F)CC1 [LSW-03-059]
7,330 ± 27.4 nM,CCN1CCN(Cc2ccc(NC(=O)c3cc(Cl)cc(NC(=O)c4cncnc4)c3)cc2C(F)(F)F)CC1 [LSW-03-072]
8,108 ± 9.08 nM,CCN1CCN(Cc2ccc(NC(=O)c3cc(Br)cc(NC(=O)c4cncc(-c5cccs5)c4)c3)cc2C(F)(F)F)CC1 [LSW-03-071]
9,314 ± 17.4 nM,CCN1CCN(Cc2ccc(NC(=O)c3cc(Cl)cc(NC(=O)c4cccc(-c5cccs5)c4)c3)cc2C(F)(F)F)CC1 [LSW-03-015]

# Continued, compound first:
row,Structure (SMILES),EC50
1,CCN1CCN(Cc2ccc(NC(=O)c3cc(Cl)cc(NC(=O)c4cncc(-c5cccs5)c4)c3)cc2)CC1 [LSW-03-030],99.6 ± 8.6 nM
2,O=C(Nc1cccc(C(F)(F)F)c1)c1cc(Cl)cc(NC(=O)c2cncc(-c3cccs3)c2)c1 [LSW-03-033],422 ± 36 nM
3,CCN1CCN(Cc2ccc(NC(=O)c3cc(NC(=O)c4cncc(-c5cccs5)c4)ccc3F)cc2C(F)(F)F)CC1 [LSW-03-067],867 ± 68.3 nM
4,O=C(Nc1ccnc(N2CCOCC2)c1)c1cc(Cl)cc(NC(=O)c2cncc(-c3cccs3)c2)c1 [LSW-03-081],732 ± 124 nM

# Same assay, conditions: Plasmodium falciparum, DD2, 72 h, read-out: Antiplasmodial Dd2 EC50 (nM) ± SD
row,Structure (SMILES),EC50
1,CCN1CCN(Cc2ccc(NC(=O)c3cncc(NC(=O)c4cncc(-c5cccs5)c4)c3)cc2C(F)(F)F)CC1 [TL5-139],191 nM
2,CCN1CCN(Cc2ccc(NC(=O)c3ccnc(NC(=O)c4cncc(-c5cccs5)c4)c3)cc2C(F)(F)F)CC1 [TL5-145],391 nM
3,CCN1CCN(Cc2ccc(NC(=O)c3cc(NC(=O)c4cncc(-c5cccs5)c4)cc(OC)c3)cc2C(F)(F)F)CC1 [TL5-134],341 nM

# Same assay, conditions: Plasmodium falciparum, DD2; 72 hour SYBR Green I; Table 2; read-out: Dd2 EC50 (nM) ± SD
row,EC50,Structure (SMILES)
1,2120 nM,CCN1CCN(Cc2ccc(NC(=O)c3cc(Cl)cc(NC(=O)N4CCN(C)CC4)c3)cc2C(F)(F)F)CC1 [LSW-03-080]
2,315 ± 18.7 nM,CCN1CCN(Cc2ccc(NC(=O)c3cc(Cl)cc(NCc4cncc(-c5cccs5)c4)c3)cc2C(F)(F)F)CC1 [LSW-03-014]
3,407 ± 56 nM,CCN1CCN(Cc2ccc(NC(=O)c3cc(Cl)cc(NC(=O)c4cccnc4)c3)cc2C(F)(F)F)CC1 [LSW-03-008]

# Test system: P. berghei luc sporozoites (Pb-Luc)
# Assay: Prophylaxis assay, single IV dose 6 hours before Pb-Luc sporozoite infection
# Assay type: in vivo, mice
# Settings: single dose 15 mg/kg 6 hours before infection; after 22 days
# Experimental: (§1) TL5-135 was dissolved or resuspended in a suspending vehicle consisting of 30% DMSO, 1% methylcellulose, 0.5% TWEEN-80, and 68.5% ultrapure water. GNF179 was resuspended in 30% DMSO, 30% PEG400, 5% TWEEN-80, 35% saline, and administered intravenously.
# (§2) For prophylaxis assays, a single dose of […] was administrated 6 hours before infection. For therapeutic assays, in a 4-day's Peters test, 4 doses (each 15 mg/kg) were administrated 6, 18, 30, and 42 hours post infection.
# (§3) The antimalarial activity was measured as a percent reduction in parasitemia from day one until day twelve post-infection.
# Infection was initiated using 100,000 P. berghei luc sporozoites (Pb-Luc). The drugs were administered IV at 50 mg/kg, single dose 6 hours prior. I: infected, UI: uninfected.
# (§4) Groups of 5 mice were infected with 100,000 Pb-Luc sporozoites by IV injection. Prophylactic (single dose of 50 mg/kg through IV injection, 6 hour before infection) and therapeutic (4-day Peters test, 4 doses of 15 mg/kg each time were administrated post-infection at 6, 18, 30, and 42 hours post infection (hpi) and the activity of the compounds was evaluated. See FIG. 8A. The parasitemia was estimated after flow cytometric enumeration of rodent malaria parasite Pb-Luc-infected red blood cells (RBS) stained with SYBR Green I, from day 3 until 20.
# (§5) TL5-135 and GNF179 antimalarial compounds were tested against Pb-Luc sporozoites. Prophylactic activity (single dose of 15 mg/kg through an IV injection, 6 hours before infection) and therapeutic activity (4-day Peters test, 4 doses of 15 mg/kg each time was administrated at 6, 18, 30, and 42 hpi of the TL5-135 antimalarial compound was evaluated. As before, groups of five mice were infected with 100,000 Pb-Luc sporozoites by IV injection. The parasitemia was estimated after flow cytometric enumeration of rodent malaria parasite Pb-Luc-infected red blood cells (RBS) stained with SYBR Green I, from day 3 until day 20. See FIG. 8B.
row,Structure (SMILES),Condition of mice after prophylactic treatment
1,"CC1(C)c2nc(-c3ccc(F)cc3)c(Nc3ccc(Cl)cc3)n2CCN1C(=O)CN [GNF179, reference compound]",still healthy and alive

# Test system: Pb-Luc sporozoites
# Assay: Therapeutic assay, 4-day Peters test against Pb-Luc sporozoites
# Assay type: in vivo, mice
# Settings: 4 doses of 15 mg/kg at 6, 18, 30, 42 hours post infection
# Experimental: as §1, §2, §3
# However, the mice treated with TL5-135 as a therapeutic had about 2.4% parasitemia after 12 days post-infection (all negative control mice died between days 11-13). The parasitemia on day 21 (21 days post-infection) for the group of mice was 35%.
# as §4, §5
row,Structure (SMILES),Condition of mice after therapeutic treatment
1,"CC1(C)c2nc(-c3ccc(F)cc3)c(Nc3ccc(Cl)cc3)n2CCN1C(=O)CN [GNF179, reference compound]",healthy and without parasites
